Experiments:
[1] = Half life in human hepatocytes at 1 uM by LC/MS-MS analysis
[2] = biological target: T1, Neutrophil elastase (Homo sapiens, UniProt P08246); test: Inhibition of human neutrophil elastase using MeO-Succ-Ala-Ala-Pro-Val-AMC as substrate after 30 mins by fluorescence assay
T1 sequence (P08246 whole entry): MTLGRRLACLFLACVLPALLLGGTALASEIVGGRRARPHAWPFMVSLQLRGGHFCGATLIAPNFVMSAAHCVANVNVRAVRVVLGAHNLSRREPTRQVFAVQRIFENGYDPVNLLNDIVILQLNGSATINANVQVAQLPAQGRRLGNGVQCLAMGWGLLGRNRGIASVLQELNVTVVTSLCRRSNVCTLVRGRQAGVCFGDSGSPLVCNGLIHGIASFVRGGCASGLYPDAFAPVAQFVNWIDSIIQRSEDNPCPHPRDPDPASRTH

[3] = biological target: T1, Neutrophil elastase; test: Inhibition of neutrophil elastase in human plasma using MeOSuc-Ala-Ala-Pro-Val-AMC as substrate by fluorescence assay
[4] = biological target: T1, Neutrophil elastase; test: Inhibition of human neutrophil elastase
[5] = biological target: T2, Neutrophil elastase (Homo sapiens) (UniProt P08246); conditions: Blood
T2 sequence (whole entry): T1 sequence (P08246 whole entry)
Description: (§1) Inhibition of neutrophil elastase in human whole blood using MeO-Succ-Ala-Ala-Pro-Val-pNA as substrate after 30 mins by colorimetric analysis

[6] = biological target: T1, Neutrophil elastase
Description: as §1

[7] = Half life in po dosed human administered as qd; type: ADME, organism-based; conditions: in vivo
[8] = biological target: T1, Neutrophil elastase; test: Inhibition of human neutrophil elastase using MeO-Suc-Ala-Ala-Pro-Val 7-amido-4-methylcoumarin as substrate preincubated for 15 mins followed by substrate addition measured after 90 mins
[9] = species: Homo sapiens; test: Selectivity ratio of IC50 for human PR3 to IC50 for human neutrophil elastase
[10] = Selectivity ratio of IC50 for mouse neutrophil elastase to IC50 for human neutrophil elastase
[11] = species: Homo sapiens; test: Selectivity ratio of IC50 for human CatG to IC50 for human neutrophil elastase
[12] = species: Homo sapiens; test: Selectivity ratio of IC50 for human chymotrypsin to IC50 for human neutrophil elastase
[13] = Selectivity ratio of IC50 for rat neutrophil elastase to IC50 for human neutrophil elastase
[14] = system: Homo sapiens; test: Inhibition of sputum neutrophil count in cystic fibrosis patient at 60 mg/kg, po bid measured at 24 hrs relative to control; type: functional
[15] = species: Homo sapiens; test: Selectivity ratio of IC50 for human trypsin to IC50 for human neutrophil elastase
[16] = Selectivity ratio of IC50 for porcine pancreatic elastase to IC50 for human neutrophil elastase
[17] = biological target: Pancreatic elastase (Sus scrofa, UniProt P08419+P00772); test: Inhibition of porcine pancreatic elastase using as succinyl-Ala-Ala-Ala-p-nitroanilide as substrate measured every 1 min by spectrophotometric analysis; type: protein assay

With `CNC(=O)N1C(=O)N(c2cccc(C(F)(F)F)c2)C2=C(C(=O)CC2)[C@H]1c1ccc(C#N)cc1S(C)(=O)=O` the half-life at 1 µM [1] was > 2.17 h, the IC50 [2] was < 1 nM and the IC50 [3] was < 1 nM.

For `Cc1c(-c2ccnn2-c2ccc(C#N)cc2)cn2nc(NC(=O)CN(C)C)nc2c1-c1cccc(C(F)(F)F)c1`, the IC50 [4] was < 20 nM.

With `CS(=O)(=O)c1cc(C#N)ccc1[C@@H]1C2=C(CCC2=O)N(c2cccc(C(F)F)c2)C(=O)N1C(=O)NC1CC1` the half-life at 1 µM [1] was > 2.17 h.

`CC(C)C[C@H]1C(=O)N(COC(=O)Cc2ccccc2Nc2c(Cl)cccc2Cl)S(=O)(=O)N1C` showed a K [5] of 9.8 ×10⁵ /M/s.

`CCc1cc(OC)cc2nc(-c3cccnc3N3CC[C@H](N(C)C)C3)oc(=O)c12` gave an IC50 [6] of 7 nM.

With `CS(=O)(=O)c1cc(C#N)ccc1[C@@H]1C2=C(CCC2=O)N(c2cccc(C(F)(F)F)c2)C(=O)N1CC#N` the half-life at 1 µM [1] was > 2.17 h, the IC50 [2] was < 1 nM and the IC50 [3] was < 1 nM.

In the case of `CC1=C(C#N)[C@@H](c2ccc(C#N)cc2S(C)(=O)=O)N(C)C(=O)N1c1cccc(C(F)(F)F)c1`, the half-life [7] is reported as 120 h.

For `Cc1c(-c2ccnn2C)cc(C(=O)NCc2ccc(S(C)(=O)=O)cn2)c(=O)n1-c1cccc(C(F)(F)F)c1`, the Ki [8] was 12 nM, the Ratio IC50 [9] was > 1900 and the Ratio IC50 [10] was 24. The Ratio IC50 [11] was > 680, the Ratio IC50 [12] was > 2000 and the Ratio IC50 [13] was 18. For the same molecule, the inhibition in vivo at 60 mg/kg [14] was 50%, the Ratio IC50 [15] was > 2000 and the Ratio IC50 [16] was > 2000.

In the case of `COC(=O)C1=C(C)N(c2cccc(C(F)(F)F)c2)c2n[nH]c(=O)n2[C@@H]1c1ccc(C#N)cc1CCCN(C)C`, the IC50 [2] is reported as < 20 nM.

In the case of `N#Cc1ccc([C@H]2NC(=O)N(c3cccc(C(F)(F)F)c3)C3=C2C(=O)CC3)cc1`, the half-life at 1 µM [1] is reported as > 2.17 h.

With `CC(C)(C)C(=O)Oc1ccc(S(=O)(=O)Nc2ccccc2C(=O)NCC(=O)[O-])cc1.[Na+]` the IC50 [17] was 5600 nM.

Source: ChEMBL document CHEMBL3616465, “Neutrophil elastase inhibitors for the treatment of (cardio)pulmonary diseases: Into clinical testing with pre-adaptive pharmacophores” (Bioorg Med Chem Lett, 2015)
